For assay [1], the target named is 18S ribosomal subunit RNA target. Briefly: Mass spectrometry based binding assay (FTICR), 18S. On the procedure: (§1) In a typical experiment, 10 μL of an aqueous solution containing 100 mM ammonium acetate buffer, 2.5 or 5 μM of each RNA, and 33% isopropyl alcohol (to aid ion desolvation) was prepared with different concentrations of each ligand or ligand mixture Samples were introduced into the electrospray ionization source (negative ionization mode) at 1 μL/min and ions were stored for 1 sec in an RF-only hexapole following desolvation. The abundances were integrated from the respective ions for free RNA and the ligand-RNA complex. The primary (1:1 RNA:ligand) and secondary (1:2 complex, if observed). […] The peak ratios were measured at each concentration, then a plot of complex/free RNA versus concentration of ligand added was fitted to a second (or higher) order binding polynomial to determine the KD.

Another assay has as its system E. Coli. Briefly: MIC, E. Coli. It counts as cell-based. On the procedure:
(§2) The MIC assays are carried out in 150 μL volume in duplicate in 96-well clear flat-bottom plates. The bacterial suspension from an overnight culture growth in appropriate medium is added to a solution of test compound in 4% DMSO in water. Final bacterial inoculum is approximately 10^5-10^6 CFU/well. […] Both ampicillin and tetracycline are used as antibiotic-positive controls in each screening assay for S. pyogenes, E. coli imp-, E. coli, S. aureus, E. faecalis, K. pneumoniae and P. vulgaris. Ciprofloxacin is used as an antibiotic positive control in each screening assay for P. aeruginosa.

Assay [2] addresses 16S ribosomal subunit RNA target. Briefly: Mass spectrometry based binding assay (FTICR), 16S. On the procedure: as §1, with “[…],” for “2.5 or 5 μM of each RNA,”
For assay [3], the system named is E. coli S30 bacterial extract (pBestLuc firefly luciferase reporter). Briefly: Coupled bacterial transcription/translation assay. The settings on record: read-out: Trans/Trans IC50. It is filed as biochemical. On the procedure: The DNA template, pBestLuc™ (Promega), is a plasmid containing a reporter gene for firefly luciferase fused to a strong tac promoter and ribosome binding site. Messenger RNA from 1 μg pBestLuc is transcribed and translated in E. coli S30 bacterial extract in the presence or absence of test compound. Compounds are tested in a black 96 well microtiter plate with an assay volume of 35 μL. […] The transcription/translation reaction is incubated for 35 minutes at 37° C. followed by detection of functional luciferase with the addition of 30 μL LucLite™ (Packard). Light output is quantitated on a Packard TopCount.

In another assay the test system is S. Aureus. Briefly: MIC, S. Aureus. It counts as cell-based. On the procedure: as §2
Setting [4] is: FTICR mass spectrometry, Example 105.
[5] abbreviates: FTICR mass spectrometry, run at 100 nM RNA, Example 105.

Converted amounts (≈) assume the structure as drawn. Like-named read-outs stand apart in the source and are kept apart here.

Consider `NCC1OC(OC2C(CO)OC(OC3C(O)C(N)CC(N)C3OC3OC(CO)C(O)C(O)C3N)C2OCCNCc2ccccc2)C(N)C(O)C1O` (stereo not drawn) [Compound 9q], for which the figures for the Kd in assay [1] (setting [4]) and in assay [2] (setting [5]) were 300 nM and 100 nM, respectively. Moreover, the “MIC E. Coli.” value in the assay with E. Coli (Example 105) was 3 to 6 µM. Also, in assay [3] (Example 105), the IC50 amounted to 800 nM. Also, in the assay with S. Aureus (Example 105), the “MIC S. Aureus” value lay within 3 to 5 µM.
On the same counts, the results for `NCC1OC(OC2C(CO)OC(OC3C(O)C(N)CC(N)C3OC3OC(CO)C(O)C(O)C3N)C2OCCNCc2ccc(N)nc2)C(N)C(O)C1O` (stereo not drawn) [Compound 9s] are 500 nM, 100 nM, 3 to 6 µM, 200 nM and 0.3 to 0.6 µM.
For the compound `NCC1OC(OC2C(CO)OC(OC3C(O)C(N)CC(N)C3OC3OC(CO)C(O)C(O)C3N)C2OCCNCc2ccnc(N)c2)C(N)C(O)C1O` (stereo not drawn) [Compound 9t], the Kd in assay [1] (setting [4]) came to 300 nM; in assay [2] (setting [5]) it was 20 nM. Further, the “MIC E. Coli.” value with E. Coli (Example 105) is 6 to 12 µM. The IC50 in assay [3] (Example 105) was found to be 700 nM. For the same compound, the “MIC S. Aureus” value in the assay with S. Aureus (Example 105) is recorded as 0.6-1^ uM.
On the same counts, the results for `NCC1OC(OC2C(CO)OC(OC3C(O)C(N)CC(N)C3OC3OC(CO)C(O)C(O)C3N)C2OCCNc2ccccn2)C(N)C(O)C1O` (stereo not drawn) [Compound 9u] are 22000 nM, 5000 nM, 12 to 25 µM, 400 nM and 1 to 2 µM.
In the case of `NCC1OC(OC2C(CO)OC(OC3C(O)C(N)CC(N)C3OC3OC(CO)C(O)C(O)C3N)C2OCCNC23CC4CC(CC(O)(C4)C2)C3)C(N)C(O)C1O` (stereo not drawn) [Compound 9w], the Kd in assay [1] (Example 106) is 1700 nM; in assay [2] (Example 106) it was 3200 nM. In addition, the “MIC E. Coli.” value against E. Coli (Example 106) fell in the range of 20 to 40 µM. Besides, the IC50 in assay [3] (Example 106) was 400 nM. Further, the “MIC S. Aureus” value against S. Aureus (Example 106) lay within 1 to 3 µM.
`NCC1OC(OC2C(CO)OC(OC3C(O)C(N)CC(N)C3OC3OC(CO)C(O)C(O)C3N)C2OCCNCCCc2ccccc2)C(N)C(O)C1O` (stereo not drawn) [Compound 9x]: the Kd turned out to be 6300 nM in assay [1] (setting [4]) and 1000 nM in assay [2] (setting [5]). In addition, in the assay on E. Coli (Example 105), the “MIC E. Coli.” value lay in the range of 3 to 5 µM. Besides, the IC50 in assay [3] (Example 105) came to 100 nM. Also, the “MIC S. Aureus” value against S. Aureus (Example 105) is 0.6 to 1.2 µM.
Turning to `NCC1OC(OC2C(CO)OC(OC3C(O)C(N)CC(N)C3OC3OC(CO)C(O)C(O)C3N)C2OCCNCCCCc2ccccc2)C(N)C(O)C1O` (stereo not drawn) [Compound 9z], the Kd was 6400 nM in assay [1] (setting [4]) and 700 nM in assay [2] (setting [5]). The “MIC E. Coli.” value against E. Coli (Example 105) lay in the range of 3 to 5 µM. Further, in assay [3] (Example 105), the IC50 came out at 100 nM. For the same compound, the “MIC S. Aureus” value against S. Aureus (Example 105) lay within 0.6 to 1.2 µM.
As for `NCC1OC(OC2C(CO)OC(OC3C(O)C(N)CC(N)C3OC3OC(CO)C(O)C(O)C3N)C2OCCN(CCc2ccccc2)C(=O)c2ccccc2)C(N)C(O)C1O` (stereo not drawn) [Compound 10], the Kd in assay [1] (Example 106) came to 2500 nM; in assay [2] (Example 106), 3900 nM. In addition, the “MIC E. Coli.” value in the assay with E. Coli (Example 106) was in the range of 10 to 20 µM. For the same compound, the IC50 in assay [3] (Example 106) was determined as 400 nM. In the assay on S. Aureus (Example 106), the “MIC S. Aureus” value was in the range of 3 to 5 µM.
In the same order, the values of `CC(=O)N(CCOC1C(OC2C(O)C(N)CC(N)C2OC2OC(CO)C(O)C(O)C2N)OC(CO)C1OC1OC(CN)C(O)C(O)C1N)CCc1ccccc1` (stereo not drawn) [Compound 11] are 6100 nM, 1500 nM, 10 to 20 µM, 400 nM and 1 to 3 µM.
With `NC[C@@H]1O[C@H](O[C@H]2[C@@H](OCCO)[C@H](O[C@@H]3[C@@H](O)[C@H](N)C[C@H](N)[C@H]3O[C@H]3O[C@H](CO)[C@@H](O)[C@H](O)[C@H]3N)O[C@@H]2CO)[C@H](N)[C@@H](O)[C@@H]1O` [Compound 12a], the Kd in assay [1] (setting [4]) stood at 7300 nM; in assay [2] (setting [5]) it was 900 nM. Moreover, in the assay with E. Coli (Example 105), the “MIC E. Coli.” value was in the range of 12 to 25 µM. In assay [3] (Example 105), the IC50 is 100 nM. For the same compound, the “MIC S. Aureus” value in the assay with S. Aureus (Example 105) lay in the range of 6 to 12 µM.
On to `NC[C@@H]1O[C@H](O[C@H]2[C@@H](OCCCCCc3ccccc3)[C@H](O[C@@H]3[C@@H](O)[C@H](N)C[C@H](N)[C@H]3O[C@H]3O[C@H](CO)[C@@H](O)[C@H](O)[C@H]3N)O[C@@H]2CO)[C@H](N)[C@@H](O)[C@@H]1O` [Compound 14c], for which the Kd was determined as 59000 nM in assay [1] (setting [4]) and 40000 nM in assay [2] (setting [5]). In addition, the MIC lay within 10 to 20 µM (≈ 7.62 to 15.2 µg/mL) with E. Coli (Escherichia coli, Example 105) and 3 to 5 µM (≈ 2.29 to 3.81 µg/mL) against S. Aureus (Staphylococcus aureus, Example 105). Moreover, in the assay on E. Coli (Example 107), the “MIC E. Coli.” value lay in the range of 10 to 20 µM. In assay [3] (Example 105), the IC50 turned out to be 200 nM. The “MIC S. Aureus” value in the assay with S. Aureus (Example 107) fell in the range of 3 to 5 µM.
Consider `NCCCNCC1OC(OC2C(N)CC(N)C(O)C2OC2OC(CO)C(OC3OC(CN)C(O)C(O)C3N)C2O)C(N)C(O)C1O` (stereo not drawn) [Compound 15b], for which the Kd was determined as 1400 nM in assay [1] (Example 108) and 1600 nM in assay [2] (Example 108). Moreover, the “MIC E. Coli.” value in the assay with E. Coli (Example 108) is 2.5-5^ uM. Further, in assay [3] (Example 108), the IC50 was 200 nM. Besides, the “MIC S. Aureus” value against S. Aureus (Example 108) was in the range of 1.3 to 2.5 µM.
On the same counts, the results for `NCC1OC(OC2C(CO)OC(OC3C(O)C(N)CC(N)C3OC3OC(CN4CCOCC4)C(O)C(O)C3N)C2O)C(N)C(O)C1O` (stereo not drawn) [Compound 15c] are 3000 nM, 3600 nM, 20 to 40 µM, 300 nM and 10 to 20 µM.
On the same counts, the results for `CC(C)(C)OC(=O)NNCC1OC(OC2C(N)CC(N)C(O)C2OC2OC(CO)C(OC3OC(CN)C(O)C(O)C3N)C2O)C(N)C(O)C1O` (stereo not drawn) [Compound 15d] are 1400 nM, 10 nM, 6 to 12 µM, 300 nM and 12 to 25 µM.
On the same counts, the results for `CNCC1OC(OC2C(N)CC(N)C(O)C2OC2OC(CO)C(OC3OC(CN)C(O)C(O)C3N)C2O)C(N)C(O)C1O` (stereo not drawn) [Compound 15e] are 1200 nM, 400 nM, 2 to 3 µM, 200 nM and 2 to 3 µM.
`CC(C)NCC1OC(OC2C(N)CC(N)C(O)C2OC2OC(CO)C(OC3OC(CN)C(O)C(O)C3N)C2O)C(N)C(O)C1O` (stereo not drawn) [Compound 15h]: the Kd in assay [1] (Example 108) and in assay [2] (Example 108) was 1200 nM each time. In addition, the “MIC E. Coli.” value in the assay with E. Coli (Example 108) is reported as 2.5-5^ uM. Also, the IC50 in assay [3] (Example 108) came to 200 nM. Besides, the “MIC S. Aureus” value with S. Aureus (Example 108) is 1.3 to 2.5 µM.
`NCC1OC(OC2C(CO)OC(OC3C(O)C(N)CC(N)C3OC3OC(CNN)C(O)C(O)C3N)C2O)C(N)C(O)C1O` (stereo not drawn) [Compound 15i]: the Kd in assay [1] (Example 108) came out at 1700 nM; in assay [2] (Example 108), 600 nM. Also, the “MIC E. Coli.” value in the assay on E. Coli (Example 108) is 12 to 25 µM. Moreover, the IC50 in assay [3] (Example 108) came to 200 nM. In addition, the “MIC S. Aureus” value against S. Aureus (Example 108) lay within 3 to 6 µM.
On to `NCCOC1C(OC2C(O)C(N)CC(N)C2OC2OC(CO)C(O)C(O)C2N)OC(CO)C1O` (stereo not drawn) [Compound 30a], for which the Kd worked out at 58000 nM in assay [1] (setting [4]) and 19000 nM in assay [2] (setting [5]). For the same compound, the “MIC E. Coli.” value with E. Coli (Example 105) fell in the range of 6 to 12 µM. The IC50 in assay [3] (Example 105) was 200 nM. In the assay on S. Aureus (Example 105), the “MIC S. Aureus” value lay within 12 to 25 µM.
In the same order, the values of `NCCCNCCOC1C(OC2C(O)C(N)CC(N)C2OC2OC(CO)C(O)C(O)C2N)OC(CO)C1O` (stereo not drawn) [Compound 30b] are 18000 nM, 9200 nM, 6 to 12 µM, 100 nM and 6 to 12 µM.
In the same order, the values of `CN(C)CCOC[C@H]1O[C@@H](O[C@@H]2[C@@H](O)[C@H](N)C[C@H](N)[C@H]2O[C@H]2O[C@H](CO)[C@@H](O)[C@H](O)[C@H]2N)[C@H](O)[C@@H]1O[C@H]1O[C@@H](CN)[C@@H](O)[C@H](O)[C@H]1N` [Compound 54, 5″-O-(2-N,N-dimethylaminoethyl) paromomycin] are 68000 nM, 4100 nM, 6 to 12 µM, 300 nM and 25 to 50 µM.

Values taken from patent US8569264B2, “Antibacterial 4,5-substituted aminoglycoside analogs having multiple substituents” (ISIS Pharmaceuticals, Inc., priority 2005, dated 2013).
